US10493026B2, “Process for making tablet using radiofrequency and lossy coated particles” (Johnson & Johnson Consumer Inc., priority 2017, dated 2019)
Values joined by “and” are separate entries in the source; they are usually repeats but may differ in a detail not shown here. Equal values may be shown once.

Experiment: Permittivity (Q, e′, e″) by impedance analyzer, capacitance method
Type: physicochemical
Details: 27 MHz
From the text: The property of permittivity is the measure of the resistance to forming an electric field. For purposes of comparing materials in air, it is often convenient to describe the permittivity of material in air where the permittivity is more specifically called “relative permittivity” or €r. This is a complex number represented by the following equation: €r=e′−je″ where e′ (the real portion of the complex number) is the dielectric constant (energy storage) and e″ (the imaginary portion of the complex number) is the dielectric loss or dissipation factor (energy dissipated as heat). The ratio of dielectric loss (e″) over the dielectric constant (e′) is called the loss tangent (tan δ) or power factor. […] The Q value is affected by physical and chemical properties such as density (porosity/particle size), moisture (conductivity), temperature, and molecular polarizability. The measurements obtained by this method can eliminate the need to measure and evaluate these properties independently.
Permittivity values (Q, e′, e″) were measured using an Agilent Impedance Analyzer at 27Mhz using a capacitance method wherein a fixture with a bottom fixed plate and top adjustable plate with a torque limiter which lightly compresses a cylindrical sample container to remove any air. During testing, the container is over filled with material and then carefully leveled off to avoid void spaces. A lid is placed on top to temporarily seal material within the container. Once a measurement is made, custom software calculates the difference between the sample and the configuration empty.

Loss Tangent (Table 1A) | e′ (Table 1A) | e″ (Table 1A) | Loss Tangent (Table 1B) | e′ (Table 1B) | e″ (Table 1B) | SMILES
0.0028 | 1.410 | 0.004 |  |  |  | OC[C@@H](O)[C@@H](O)[C@H](O)[C@H](O)CO [Mannitol NF (Pearlitol 200SD), Mannitol]
0.0358 and 0.0462 and 0.0361 | 1.960 and 2.097 and 1.803 | 0.0701 and 0.0969 and 0.0650 |  |  |  | OC[C@@H](O)[C@@H](O)[C@H](O)[C@@H](O)CO [Sorbitol Powder, NF, Sorbitol]
0.0035 | 1.703 | 0.006 | 0.0022 | 1.6214 | 0.0035 | OC[C@@H](O)[C@@H](O[C@H]1O[C@H](CO)[C@@H](O)[C@H](O)[C@H]1O)[C@H](O)[C@@H](O)CO [Maltitol, NF (SweetPearl P300DC), Maltitol]
